Laboratory results published in patent US12599640B2, “Lactobacillus plantarum ZUST49 and bacterial agent, and use thereof” (ZHEJIANG UNIVERSITY OF SCIENCE AND TECHNOLOGY, priority 2023, dated 2026).

Test: Production of sulforaphane by feeding mice with enteric capsule (plasma sulforaphane, cyclocondensation method)
Format: in vivo
Conditions: mouse plasma; intragastric glucoraphanin aqueous solution, 150 μmol of glucoraphanin/kg; blood taken at 0 h and 12 h
Description: C57BL/6 male mice of 6 to 8 weeks were pre-reared for 1 week and randomly divided into an enteric capsule group, a glucoraphanin group, and a blank group. Mice in the enteric capsule group were intragastrically administered daily with an enteric capsule aqueous solution containing Lactobacillus plantarum ZUST49 and glucoraphanin (150 μmol of glucoraphanin/kg and ZUST49 content of 8.7×10^5 CFU/g, and prepared according to the method of example 3). The mice in the glucoraphanin group were intragastrically administrated with a glucoraphanin aqueous solution (150 μmol of glucoraphanin/kg). The mice were fed with food and water ad libitum. Food intake and weight were recorded daily. The mice were deeply anesthetized with an intraperitoneal injection of ketamine/xylazine (87 mg/mL and 13 mg/mL respectively, and 0.1 mL/100 g mice) at 0 h and 12 h (6 mice/group each time period), and put to death by cervical dislocation after blood collection by cardiac puncture. The sulforaphane content in plasma of the mice was determined by a cyclocondensation method.

Q: Which “sulforaphane content in the plasma of the mice” value does the source give for `C[S+]([O-])CCCC/C(=N\OS(=O)(=O)O)S[C@@H]1O[C@H](CO)[C@@H](O)[C@H](O)[C@H]1O` (stereo partly shown) [glucoraphanin] here?
A: 0.017 ± 0.030 µM
